Reference: patent US6916849B2, “Compositions for improving lipid content in the blood” (priority 2000, dated 2005)

Assays:
[1] = test system: total cholesterol in the serum; assay: Evaluation of serum lipid level: total cholesterol in serum of beagle dogs after oral administration for 11 days (CEH-COD-POD method); conditions: oral capsule once daily, pravastatin 2 mg/kg, mean of 5 dogs
Description: (§1) Pravastatin with a purity of 99.4%, manufactured at Sankyo Co. Ltd., was employed in the study.
(§2) Male beagle dogs were purchased at 5 months old from Covance Research Products Inc., as the test animals, and were used after quarantine and acclimatization periods of approximately 1 month.
(§3) The required amounts of pravastatin or each combination drug as calculated based on the body weight of each animal were placed in a gelatin capsule (½-ounce volume) purchased from TORPAC Co. Capsules filled with pravastatin were stored in a cold room and with combination drugs at room temperature until use.
(§4) Combination drugs were put in identical geltin capsules.
(§5) Capsules filled with pravastatin or combination drugs were orally administered once daily between 9:00 and 12:30 to the test animals. All test animals were fasted 2-3 hr prior to administration. The administration period was 11 successive days.
(§6) Approximately 10 ml of blood were collected from the cephalic vein on 14 and 7 days before administration (2 and one week before the drug administration) and 4, 8, and 12 days after administration of the capsules. The animals were fasted for approximate 18 hr prior to blood collection. Collected blood was placed into test tubes and left for 0.5-1 hr at room temperature. The test tubes were then centrifuged at 3,000 rpm for 10 min to isolate serum. Levels of total cholesterol and ALP in the serum were determined by the CEH-COD-POD and Bessey-Lowry methods, respectively.
(§7) For quantitative analyses, an automatic analyzer, Monarch (Instrumentation Laboratory), was used.
(§8) Each value represents the mean value calculated from 5 animals.

[2] = test system: ALP in the serum; conditions: oral capsule once daily, pravastatin 2 mg/kg, riboflavin acetate 6 mg/kg, relative to pre-administration average (100), mean of 5 dogs
Description: as §1, §2, §3, §4, §5, §6, §7, §8

[3] = d-α-tocopherol acetate 10 mg/kg, ascorbic acid 50 mg/kg, relative to pre-administration average (100)
[4] = d-α-tocopherol acetate 10 mg/kg, relative to pre-administration average (100)
[5] = riboflavin acetate 6 mg/kg, relative to pre-administration average (100)
[6] = ascorbic acid 50 mg/kg, relative to pre-administration average (100)

CC(=O)Oc1c(C)c(C)c2c(c1C)CC[C@@](C)(CCC[C@H](C)CCC[C@H](C)CCCC(C)C)O2 [d-α-tocopherol acetate]
Total Cholesterol Level in Serum After Administration, 4 days [1, 3]: 97.8
Total Cholesterol Level in Serum After Administration, 4 days [1, 4]: 96.3
Total Cholesterol Level in Serum After Administration, 8 days [1, 3]: 96.4
Total Cholesterol Level in Serum After Administration, 8 days [1, 4]: 92.8
Total Cholesterol Level in Serum After Administration, 12 days [1, 3]: 96.1
Total Cholesterol Level in Serum After Administration, 12 days [1, 4]: 95.9

Riboflavin acetate
ALP level (after administration), 4 days ([2]; 4 days): 98.1
ALP level (after administration), 8 days ([2]; 8 days): 98.8
ALP level (after administration), 12 days ([2]; 12 days): 93.9
Total Cholesterol Level in Serum After Administration, 4 days ([1]; riboflavin acetate 6 mg/kg, relative to average level 2 and 1 week before administration (100)): 103.9
Total Cholesterol Level in Serum After Administration, 8 days [1, 5]: 101.6
Total Cholesterol Level in Serum After Administration, 12 days [1, 5]: 100.5

O=C1O[C@H]([C@@H](O)CO)C(O)=C1O [Ascorbic acid, ascorbic acid]
Total Cholesterol Level in Serum After Administration, 4 days [1, 6]: 98.7
Total Cholesterol Level in Serum After Administration, 8 days [1, 6]: 98.2
Total Cholesterol Level in Serum After Administration, 12 days [1, 6]: 103.4
